Laboratory results from PMC10130856 (Heliyon, 2023).

Molecular target: hen egg-white lysozyme (HEWL) (Gallus gallus, UniProt P00698)
Experiment: intrinsic tryptophan fluorescence quenching
Type: binding
Conditions: pH 7.4, 20 mM sodium phosphate, 298.15 K, 5 μM protein; double-log

Chain of hen egg-white lysozyme (HEWL) (P00698 19-147): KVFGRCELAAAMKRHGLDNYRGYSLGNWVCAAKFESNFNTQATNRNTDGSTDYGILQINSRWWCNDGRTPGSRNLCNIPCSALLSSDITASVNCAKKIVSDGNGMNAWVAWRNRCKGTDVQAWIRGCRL

## CCCCC(=O)N(Cc1ccc(-c2ccccc2-c2nn[nH]n2)cc1)[C@H](C(=O)O)C(C)C [valsartan]
  Kb(M^-1): 2.96 × 10^8±0.21 M^−1
